These results are taken from US20100022521A1, “COMPOUNDS” (Hansa Metallwerke AG, priority 2005, published 2010).

pKi: −log10 of the molar value. Bounds are passed on as bounds.

The assay has as its target mGluR5 (UniProt P31424). The assay can be described thus: MGluR5 receptor binding test ([3H]-M-MPEP displacement). On the set-up: species or system rat. To be noted: radioligand [3H]-M-MPEP (2 nM); species not given; read-out: mGlu5 Ki. As to the method:
MGluR5 Receptor Binding Tests
Rat cerebro-cortical membrane preparation was used to determine the binding characteristics of reference compounds and novel compounds to the rat mGluR5. The A18 cell line expressing hmGluR5a (purchased from Euroscreen) was used to determine binding characteristics of the chemical compounds to the human mGluR5a receptor. As radioligand [3H]-M-MPEP (2 nM) was used. The nonspecific binding was determined in the presence of 10 μM M-MPEP.
For the compound `O=S(=O)(c1ccc(Cl)cc1)c1sc2nccc(O)c2c1-c1ccc(Cl)cc1` [Compound 103, 2-(4-chloro-benzenesulfonyl)-3-(4-chloro-phenyl)-4-hydroxy-thieno[2,3-b]pyridine], the pKi is 5.82 to 6.30.
As for `CC1CCN(c2c(S(=O)(=O)c3ccc(Cl)cc3)sc3ncc(N)cc23)CC1` [Compound 104, 5-Amino-2-(4-chloro-benzenesulfonyl)-3-(4-methyl-piperidine)-thieno[2,3-b]pyridine], the figure is more than 6.30; as for `CC(=O)N1CCN(c2c(S(=O)(=O)c3ccc(Cl)cc3)sc3ncccc23)CC1` [Compound 105], less than 5.82.
As for `CN1CCN(c2c(S(=O)(=O)c3ccc(Cl)cc3)sc3ncccc23)CC1` [Compound 106], the pKi was more than 6.30.
As for `CC1CCN(c2c(S(=O)(=O)c3ccc(Cl)cc3)sc3ncc(O)cc23)CC1` [Compound 107], the figure is more than 6.30; as for `CS(=O)(=O)c1ccc(-c2c(S(=O)(=O)c3ccc(Cl)cc3)sc3ncccc23)cc1` [Compound 108], less than 5.82; as for `O=S(=O)(c1ccc(Cl)cc1)c1sc2ncccc2c1-c1cccc(F)c1` [Compound 109], more than 6.30.
Turning to `N#Cc1cc(F)cc(S(=O)(=O)c2sc3ncccc3c2-c2cccc(F)c2)c1` [Compound 110, 2-(3-Cyano-5-fluoro-benzenesulfonyl)-3-(3-fluoro-phenyl)-thieno[2,3-b]pyridine], the negative-log Ki (pKi) was more than 6.30.
Consider `CNC(=O)Nc1c(S(=O)(=O)c2ccc(OC)cc2)sc2ncccc12` [Compound 111], for which the pKi is less than 5.82.
As for `CNC(=O)Nc1c(S(=O)(=O)c2ccc(Cl)cc2)sc2ncccc12` [Compound 112], the figure is less than 5.82; as for `O=S(=O)(c1ccc(Cl)cc1)c1sc2ncccc2c1-c1ccccc1Cl` [Compound 113], more than 6.30; as for `O=S(=O)(c1ccc(Cl)cc1)c1sc2ncccc2c1-c1ccccc1F` [Compound 114], more than 6.30.
Take `Nc1cnc2sc(S(=O)(=O)c3ccc(Cl)cc3)c(-c3cccc(F)c3)c2c1` [Compound 115, 5-Amino-2-(4-chloro-benzenesulfonyl)-3-(3-fluor-phenyl)-thieno[2,3-b]pyridine]: the pKi is more than 6.30.
Next, `CS(=O)(=O)NC1CCN(c2c(S(=O)(=O)c3ccc(Cl)cc3)sc3ncccc23)CC1` [Compound 116]: less than 5.82; `O=S(=O)(c1ccc(Cl)cc1)c1sc2ncccc2c1N1CC[S+]([O-])CC1` [Compound 117]: less than 5.82; `O=S(=O)(c1ccc(Cl)cc1)c1sc2ncccc2c1N1CCN(c2ccc(F)cc2)CC1` [Compound 118]: less than 5.82.
As for `CC1CCN(c2c(S(=O)(=O)c3ccc(Cl)cc3)sc3nc(Cl)ccc23)CC1` [Compound 119], the figure is more than 6.30; as for `COc1ccc(S(=O)(=O)c2sc3ncccc3c2NC(=O)N2CCC(C)CC2)cc1` [Compound 120, N-[2-(4-methoxy-benzenesulfonyl)-thieno[2,3b]pyridin-3-yl]-4-methyl-piperidine-1-carboxamide], less than 5.82.
Next, `O=C(Nc1c(S(=O)(=O)c2ccc(Cl)cc2)sc2ncccc12)N1CCCCC1` [Compound 121]: less than 5.82; `CN1CCN(C(=O)Nc2c(S(=O)(=O)c3ccc(Cl)cc3)sc3ncccc23)CC1` [Compound 122]: less than 5.82; `O=S(=O)(c1ccc(Cl)cc1)c1sc2ncc(F)cc2c1-c1ccc(Cl)cc1` [Compound 123, 2-(4-Chloro-benzenesulfonyl)-3-(4-chloro-phenyl)-5-fluoro-thieno[2,3-b]pyridine]: more than 6.30.
Consider `CN(C)c1ccc(S(=O)(=O)c2sc3nccc(N(C)C)c3c2-c2ccc(Cl)cc2)cc1` [Compound 124, 3-(4-chloro-phenyl)-4-dimethylamino-2-(4-dimethylamino-benzenesulfonyl)-thieno[2,3-b]pyridine], for which the pKi was less than 5.82.
Regarding `Nc1ccnc2sc(S(=O)(=O)c3ccc(Cl)cc3)c(-c3ccc(Cl)cc3)c12` [Compound 125, 4-Amino-2-(4-chloro-benzenesulfonyl)-3-(4-chloro-phenyl)-thieno[2,3-b]pyridine], the pKi was more than 6.30.

The pKi is the negative decadic logarithm of the Ki, by convention in mol/L.
